One compound from patent US12478629B2, “Use of glucocorticoids for the treatment of epithelial microbial infections of a fluid containing organ with a natural exterior orifice in mammals” (VIRBAC, priority 2018, dated 2025) can be followed below.

This data set deals with mild clinical mastitis. In words: Multicenter clinical field study, intramammary treatment of mild clinical mastitis. It counts as in vivo, lactating cows and heifers. Here is the method: The purpose of this multicenter clinical field study is to evaluate the efficacy and the safety of HCA at a dosage of 20 mg in 10 ml of Vaseline oil based formulation every 12±2 h hours (minimum of one and maximum of four treatments) in the intramammary treatment of mild clinical mastitis in lactating cows; more specifically to assess the efficacy (clinical cure rate) of HCA alone in the treatment of udder inflammation (mild clinical mastitis), under field conditions and to assess the safety and the risk of aggravation or relapses during and after the treatment with HCA alone.
Animals (50 lactating cows and heifers presenting clinical symptoms of mastitis) have been intramammarily treated with one syringe (10 mL) containing 20 mg of HCA at each time point for a minimum of 1 and a maximum of 4 treatments in a 12±2 h interval (each morning or evening milking time, respectively). Depending on the result of the clinical examination and the clinical status classification, the animal has been treated until the animal was classified as clinically cured, failure or the maximum of 4 treatments is reached.
Before the tested treatment, a sample of milk of each animal has been collected to be tested for bacteriology of classical pathogenic bacteria; among the 50 animals, 34 produced a milk containing pathogenic bacteria, no pathogenic bacteria has been detected in the milk of the 16 remaining animals, it can nevertheless not be excluded that those 16 animals were infected by a non-tested pathogenic bacteria.

Structures are written as SMILES.

Turning to `CCC(=O)O[C@]1(C(=O)COC(C)=O)CC[C@H]2[C@@H]3CCC4=CC(=O)CC[C@]4(C)[C@H]3[C@@H](O)C[C@@]21C` [HCA, hydrocortisone 21-acetate 17α-propionate], the “animals cured (clinical cure rate)” value (16 animals bacteriologically negative at DO) was determined as 56.3%; the “animals cured (clinical cure rate)” value (34 animals bacteriologically positive at DO) was determined as 20.6%; the “animals cured (clinical cure rate)” value (all 50 animals, 20 mg HCA in 10 mL intramammary every 12±2 h, after 3 or 4 administrations) was 32%. Further, the “adverse effect of the treatment / tolerance” value (intramammary, 20 mg in 10 mL, 1 to 4 treatments) is listed as “No adverse effect”.
